Counter-ions that a name gives are not always drawn.
Columns and labels:
[1] = system: CC(C)C[C@H](NC(=O)[C@@H]1CCCN1C(=O)[C@H](C)NC(=O)[C@H](C)NC(=O)CCC(=O)O)C(=O)Nc1ccc([N+](=O)[O-])cc1; assay: purified protein, by the assay type; settings: other: 22° C., pH 8.0, Lineweaver-Burk plot
Procedure: (§3) First the Km values of the elastolytic serine proteases from A. fumigatus and A. flavus were calculated. […] The Km of the elastolytic serine proteases from A. fumigatus and A. flavus were determined using the synthetic chromogenic molecule Suc-Ala-Ala-Pro-Leu-pNa as a substrate. Reaction mixtures were prepared containing 5 μm of various concentrations of the chromogenic substrate dissolved in dimethyl sulfoxide, 990 μm of 0.1M Tris-HCl, buffer pH 8.0, and 5 μm of the aspergillus protease (0.65 mg/ml). The release of pNa from the substrate and the subsequent increase in absorbance of the reaction mixture at 410 nm was monitored at 22° C. for 10 minutes using a Hewlett Packard 8451A diode array spectrophotometer. The initial rates of the enzymatic reaction at 22° C. were then determined for each concentration of substrate and the reciprocals plotted on a Lineweaver-Burk plot.
(§4) Next the ability of the reversible subtilisin-type inhibitors Barley ASI, purified SSI, and recombinant SSI and of the reversible chymotrypsin-type inhibitors Eglin C, potato protease I1, and potato protease I2 to block hydrolysis of the synthetic chromogenic substrate by the aspergillus elastolytic serine proteases was evaluated. Various concentrations of each inhibitor were pre-incubated for 5 minutes in samples containing the buffer and protease. […]

[2] = background statement; cited from earlier work
[3] = biological target: porcine pancreatic elastolytic serine protease (Sus scrofa, UniProt P00772); assay: Residual serine protease activity after preincubation with serine protease inhibitors; assay type: biochemical; settings: for Reduction of the activity of porcine serine protease (in words): summary of Table 3
Chain of porcine pancreatic elastolytic serine protease (P00772 27-266): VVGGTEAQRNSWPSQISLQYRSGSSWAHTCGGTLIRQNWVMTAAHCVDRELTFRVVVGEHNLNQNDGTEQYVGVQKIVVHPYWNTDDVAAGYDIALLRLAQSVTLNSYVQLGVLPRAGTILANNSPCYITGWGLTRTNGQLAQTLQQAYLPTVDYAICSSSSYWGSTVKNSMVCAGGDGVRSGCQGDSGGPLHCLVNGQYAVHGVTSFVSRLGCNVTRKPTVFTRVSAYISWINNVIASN
Procedure: (§1) Reaction mixtures for each protease were prepared by adding the protease to 0.1M Hepes, pH 7.5. The experimental samples were then preincubated for 30 minutes at 22° C. with 1 mM of the inhibitors. At the end of the 30 minute pre-incubation, the chromogenic substrate Suc-Ala-Ala-Pro-Leu-p-Na at a final concentration of 1 mM was added to each sample. The enzyme activity in the samples was monitored by measuring the release of pNA from the chromogenic substrate at 22° C. during a 10 minute reaction time. The enzyme activity in each experimental sample as a percentage of the enzyme activity in the control sample which was taken to be 100% was then determined.

[4] = biological target: T1, A. flavus Serine Protease (Aspergillus flavus, UniProt P35211); assay: as above; assay type: biochemical; settings: for Prevention of hydrolysis of Suc-Ala-Ala-Pro-Leu-pNA by A. flavus serine protease (in words): summary of Table 3
T1 construct: The extracellular serine proteases of A. fumigatus and A. flavus were purified from 5 day cultures; endogenous in cells; host or cells: Aspergillus flavus 5-day culture, extracellular fluid, bacitracin-Sepharose 4B
T1 sequence (P35211 122-403): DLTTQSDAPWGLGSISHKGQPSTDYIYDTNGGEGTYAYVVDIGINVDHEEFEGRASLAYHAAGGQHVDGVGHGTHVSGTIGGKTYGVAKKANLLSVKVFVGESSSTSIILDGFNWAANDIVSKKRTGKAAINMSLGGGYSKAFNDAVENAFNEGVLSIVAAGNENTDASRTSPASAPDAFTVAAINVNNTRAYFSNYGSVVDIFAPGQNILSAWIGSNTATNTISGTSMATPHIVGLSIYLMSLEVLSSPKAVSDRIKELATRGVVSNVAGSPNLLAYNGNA
Excerpt: (§2) The serine protease inhibitors 4-carboxamido-substituted cephem (L-658,758), (S-(R*,S*))-4-((3,3-diethyl-1-((1-(4-methyl-phenyl)butylamino)carbonyl)-4-oxo-2-azetidinyl)oxy)-benzeneacetic acid 2-amino-2-methyl-1-propanol salt (L-680, 833) are known to irreversibly bind to the active site of the elastolytic serine protease obtained from neutrophils. It is also known that the serine protease inhibitor PMSF irreversibly binds to the active site of all serine proteases. The ability of the serine protease inhibitors L-658,758 and L-680,833, both of which were obtained from Merck Chemical Company, Rahway, N.J., and PMSF to block the proteolytic activity of the elastolytic serine proteases from Aspergillus fumigatus and Aspergillus flavus were tested as follows.
as §1

[5] = biological target: T2, A. fumigatus Serine Protease (Aspergillus fumigatus, UniProt P28296); assay: as above; assay type: biochemical; settings: for Prevention of hydrolysis of Suc-Ala-Ala-Pro-Leu-pNA by A. fumigatus serine protease (in words): summary of Table 3; for Serine protease (SP) activity (%), A. fumigatus Serine Protease: inhibitor 1 mM, pH 7.5, 30 min preincubation at 22° C., control = 100%
T2 construct: The extracellular serine proteases of A. fumigatus and A. flavus were purified from 5 day cultures; endogenous in cells; host or cells: Aspergillus fumigatus 5-day culture, extracellular fluid, bacitracin-Sepharose 4B
T2 sequence (P28296 122-403): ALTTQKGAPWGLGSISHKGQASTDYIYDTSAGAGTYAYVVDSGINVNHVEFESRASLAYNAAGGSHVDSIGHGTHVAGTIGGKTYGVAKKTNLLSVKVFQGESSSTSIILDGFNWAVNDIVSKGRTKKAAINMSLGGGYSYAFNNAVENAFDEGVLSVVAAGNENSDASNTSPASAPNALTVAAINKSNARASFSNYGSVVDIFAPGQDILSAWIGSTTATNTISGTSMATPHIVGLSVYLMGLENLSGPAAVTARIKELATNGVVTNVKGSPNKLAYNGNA
Excerpt: as §2, §1

[6] = statement without test; cited from earlier work
[7] = biological target: A. fumigatus elastolytic serine protease (Aspergillus fumigatus, UniProt P28296); assay: Inhibition constants (Ki) of reversible inhibitors for A. fumigatus elastolytic serine protease, chromogenic substrate; settings: summary of Table 2
Chain of A. fumigatus elastolytic serine protease (P28296 122-403): as above
Procedure: as §3, §4

[8] = Toxicity of the composition in irradiated, uninoculated mice; assay type: in vivo, Balb/c mice; settings: Experiment 1, seven 10 μl treatments of the 50 mg/ml composition over 48 hours
Procedure: Tests were conducted to assess the effect of treatment with the pharmaceutical compositions of the present invention on the pathogenesis of invasive pulmonary aspergillosis in immunocompromised animals. To prevent secondary bacterial or viral infections in the treated and control animals, pathogen-free eight-week old female Balb/c mice were housed in a Bioclean laminar flow hood and provided with oxytetracylcine (100 mg/l)-neomycin sulfate (10 mg/l), pH 2.5, from 7 days prior to irradiation until the end of each experiment. Following seven days of treatment with the antibiotics, one group of animals was made immunodeficient by exposure to 400 rads of gamma radiation from a Cesium 137 source.
To test the toxicity of the pharmaceutical composition of example 1, a second group of irradiated mice, inoculated with 30 ul of Tween alone were treated with a […] the pharmaceutical composition from example 1 according to the same schedule for a total of seven treatments.
Twenty-five, irradiated, uninoculated animals were also treated with […] of the pharmaceutical composition of example 4 according to the same schedule to assess the toxicity of the composition containing potato protease inhibitor in immunocompromised animals. The effect of treatment with the pharmaceutical composition of example 4 on the survival of uninoculated and aspergillus-inoculated animals is shown in Table 7.

[9] = inhibitor 1 mM, pH 7.5, 30 min preincubation at 22° C., control = 100%

Q: For “A. flavus elastolytic serine protease (Aspergillus flavus)”, which Km [1] is on record?
A: 570 µM

Q: With C[C@@H]1[C@H](O)[C@@H](C)/C=C/C=C/C=C/C=C/C=C/C=C/C=C/[C@H](O[C@@H]2O[C@H](C)[C@@H](O)[C@H](N)[C@@H]2O)C[C@@H]2O[C@](O)(C[C@@H](O)C[C@@H](O)[C@H](O)CC[C@@H](O)C[C@@H](O)CC(=O)O[C@H]1C)C[C@H](O)[C@H]2C(=O)O [amphotericin B] as the molecule, how does the Nephrotoxicity [2] read?
A: serious side effect

Q: With “A. fumigatus elastolytic serine protease (Aspergillus fumigatus Af293)” as the molecule, how does the Km [1] read?
A: 350 µM

Q: Which activity at 1000 µM ([3]; inhibitor 1 mM, pH 7.5, 30 min preincubation at 22° C., control = 100%, read-out: Serine protease (SP) activity (%), Porcine pancreas Serine Protease) does the source give for CCC[C@@H](NC(=O)N1C(=O)C(CC)(CC)[C@@H]1Oc1ccc(CC(=O)O)cc1)c1ccc(C)cc1 [L680,833, (S-(R*,S*))-4-((3,3-diethyl-1-((1-(4-methyl-phenyl)butylamino)carbonyl)-4-oxo-2-azetidinyl)oxy)-benzeneacetic acid 2-amino-2-methyl-1-propanol salt] here?
A: 12%

Q: And the “Reduction of the activity of porcine serine protease (in words)” value [3]?
A: effective at reducing the activity

Q: What about the activity at 1000 µM ([4]; inhibitor 1 mM, pH 7.5, 30 min preincubation at 22° C., control = 100%, read-out: Serine protease (SP) activity (%), A. flavus Serine Protease) of the same molecule?
A: 89%

Q: And the “Prevention of hydrolysis of Suc-Ala-Ala-Pro-Leu-pNA by A. flavus serine protease (in words)” value [4]?
A: ineffective

Q: And the activity at 1000 µM ([5]; pH 7.5, read-out: Serine protease (SP) activity (%), A. fumigatus Serine Protease)?
A: 93%

Q: What about the “Prevention of hydrolysis of Suc-Ala-Ala-Pro-Leu-pNA by A. fumigatus serine protease (in words)” value [5] of the same molecule?
A: ineffective

Q: For CO[C@H]1C(=O)N2C(C(=O)N3CCC[C@H]3C(=O)O)=C(COC(C)=O)CS(=O)(=O)[C@H]12 [L658,758, 4-carboxamido-substituted cephem], which “Serine protease (SP) activity (%), Porcine pancreas Serine Protease” value [3, 9] is on record?
A: 6.6%

Q: And the “Reduction of the activity of porcine serine protease (in words)” value [3]?
A: effective at reducing the activity

Q: What about the “Serine protease (SP) activity (%), A. flavus Serine Protease” value [4, 9] of the same molecule?
A: 91%

Q: And the “Prevention of hydrolysis of Suc-Ala-Ala-Pro-Leu-pNA by A. flavus serine protease (in words)” value [4]?
A: ineffective

Q: And the “Serine protease (SP) activity (%), A. fumigatus Serine Protease” value [5]?
A: 93%

Q: And the “Prevention of hydrolysis of Suc-Ala-Ala-Pro-Leu-pNA by A. fumigatus serine protease (in words)” value [5]?
A: ineffective

Q: What does the source list for O=S(=O)(F)Cc1ccccc1 [PMSF]?
A: Toxicity (in words) [6]: highly toxic; Serine protease (SP) activity (%), Porcine pancreas Serine Protease [3, 9]: 0%; Reduction of the activity of porcine serine protease (in words) [3]: reduced the enzymatic activity; Serine protease (SP) activity (%), A. flavus Serine Protease [4, 9]: 0%; Prevention of hydrolysis of Suc-Ala-Ala-Pro-Leu-pNA by A. flavus serine protease (in words) [4]: reduced the enzymatic activity; Serine protease (SP) activity (%), A. fumigatus Serine Protease [5]: 0.89%; Prevention of hydrolysis of Suc-Ala-Ala-Pro-Leu-pNA by A. fumigatus serine protease (in words) [5]: reduced the enzymatic activity

B1: SSI: protein produced and secreted by streptomyces, purified from Streptomyces albogriseolus strains (protein, UniProt P01006 32-144, looked up)
Subtilisin inhibitor: DAPSALYAPSALVLTVGKGVSATTAAPERAVTLTCAPGPSGTHPAAGSACADLAAVGGDLNALTRGEDVMCPMVYDPVLLTVDGVWQGKRVSYERVFSNECEMNAHGSSVFAF
Q: For B1, which “Inhibition of the elastolytic serine protease from A. fumigatus (in words)” value [7] is on record?
A: greatest inhibitory effect

Q: What about the “Mortality of treated, uninoculated, immunocompromised animals” value [8] of the same molecule?
A: no mortality

Reference: patent publication US5739283A, “Prevention of invasive pulmonary aspergillosis with serine proteinase inhibitors” (The Ohio State Research Foundation, priority 1995, dated 1998)
